Results: article PMC3481155, “AhR activation underlies the CYP1A autoinduction by A-998679 in rats” (Frontiers in Genetics, 2012)

Legend:
rat Cyp2b1 = biological target: T1, rat Cyp2b1 (Rattus norvegicus, UniProt P00176); assay: Recombinant rat Cyp phenotype profiling, 2B1; type: in vitro ADME; conditions: 60 min
T1 construct: purchased BD Gentest; host or cells: baculovirus infected insect cells
Experimental: (§1) Identification of the drug metabolizing enzymes (DMEs) of A-998679 was studied in cDNA expressed recombinant enzymes prepared from baculovirus infected insect cells over-expressing rat Cyp isoforms (BD Gentest, Woburn, MA) as listed in Table 2. Incubations were conducted in duplicate using Supersomes. The incubation mixture contained 100 pmol/ml of enzymes, except for Cyp1a1 (200 pmol/ml), 0.1 or 0.21 μM of [^3H]A-998679 in 100 mM phosphate buffer (pH 7.4). Reactions were initiated with the addition of NADPH at a final concentration of 1 mM and incubated at 37°C for 60 min. At the end of the incubation period, the incubations were terminated by the addition of acetonitrile/ethanol (50/50, v/v) solution. Insect control samples lacking expressed enzyme were used as negative control. The degree of metabolism of A-998679 was assessed by percent of parent remaining using the radio-HPLC method described below.
(§2) Radiolabeled components from the above assays were profiled following separation by HPLC with on line radioflow detector. The system consisted of an Agilent 1100 Series quaternary pump and autosampler connected to a Packard 500TR flow scintillation detector. The data were processed using the Radiomatic™ Flo-one® software v3.65. The scintillant (Perkin Elmer FLO-SCINT™ III) flow was maintained at 3 ml/min. […]

rat Cyp 2D1 = biological target: T2, rat Cyp 2D1 (Rattus norvegicus, UniProt P10633); assay: Recombinant rat Cyp phenotype profiling, 2D1; type: in vitro ADME; conditions: 60 min
T2 construct: purchased BD Gentest; host or cells: baculovirus infected insect cells
T2 sequence (P10633 whole entry): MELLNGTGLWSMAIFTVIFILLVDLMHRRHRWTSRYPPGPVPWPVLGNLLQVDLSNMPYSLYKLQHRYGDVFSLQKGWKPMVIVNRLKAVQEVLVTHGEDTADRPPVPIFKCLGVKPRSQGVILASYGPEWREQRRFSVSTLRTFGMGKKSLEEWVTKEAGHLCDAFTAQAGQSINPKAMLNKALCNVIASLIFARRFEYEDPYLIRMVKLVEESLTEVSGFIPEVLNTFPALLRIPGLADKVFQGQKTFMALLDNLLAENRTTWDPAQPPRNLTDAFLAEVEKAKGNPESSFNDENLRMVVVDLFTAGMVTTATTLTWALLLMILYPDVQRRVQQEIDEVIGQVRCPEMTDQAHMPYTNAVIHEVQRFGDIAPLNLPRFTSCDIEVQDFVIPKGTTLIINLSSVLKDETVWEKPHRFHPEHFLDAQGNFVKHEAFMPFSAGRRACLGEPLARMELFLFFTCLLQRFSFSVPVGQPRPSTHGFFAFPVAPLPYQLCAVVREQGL
Experimental: as §1, §2

Cyp1a1 = Cyp1a1 mRNA in rat small intestine (jejunum); type: in vivo
Experimental: All animal experiments were conducted in accordance with the Guiding Principles in the Use of Animals in Toxicology (http://www.toxicology.org/ai/air/air6.asp) and were approved by Abbott's Institutional Animal Care and Use Committee (IACUC). Male Sprague-Dawley rats [Crl:CD®(SD)IGS BR], weighing ~250 g at study initiation were obtained from Charles River Laboratories, Inc. (Wilmington, MA). Rats were housed singly in ventilated, stainless steel, wire-bottom hanging cages and fed non-certified Rodent Chow (Harlan Labs, Madison, WI), and water ad libitum and acclimated for at least 5 days after arrival. […] Serum clinical chemistry parameters were quantified using an Aeroset Clinical Chemistry Analyzer (Abbott Laboratories, Abbott Park, IL) and included alanine amino transferase (ALT), aspartate amino transferase (AST), gamma glutamyltransferase (GGT), and alkaline phosphatase (ALP) activities.
Frozen liver or jejunum were immediately added to 4 ml of TRIzol reagent (Invitrogen Life Technologies) and homogenized using a Polytron 300D homogenizer (Brinkman Instruments, Westbury, NY). […] Nucleic acid concentration was determined by OD 260 nm (Smart-Spec, Bio-Rad Laboratories, Hercules, CA), and RNA integrity was evaluated using an Agilent 2100 bioanalyzer (Agilent Technologies, Foster City, CA). […]

rat Cyp 2C6 = biological target: T3, rat Cyp 2C6 (Rattus norvegicus, UniProt P05178); assay: Recombinant rat Cyp phenotype profiling, 2C6; type: in vitro ADME; conditions: 60 min
T3 construct: purchased BD Gentest; host or cells: baculovirus infected insect cells
T3 sequence (P05178 whole entry): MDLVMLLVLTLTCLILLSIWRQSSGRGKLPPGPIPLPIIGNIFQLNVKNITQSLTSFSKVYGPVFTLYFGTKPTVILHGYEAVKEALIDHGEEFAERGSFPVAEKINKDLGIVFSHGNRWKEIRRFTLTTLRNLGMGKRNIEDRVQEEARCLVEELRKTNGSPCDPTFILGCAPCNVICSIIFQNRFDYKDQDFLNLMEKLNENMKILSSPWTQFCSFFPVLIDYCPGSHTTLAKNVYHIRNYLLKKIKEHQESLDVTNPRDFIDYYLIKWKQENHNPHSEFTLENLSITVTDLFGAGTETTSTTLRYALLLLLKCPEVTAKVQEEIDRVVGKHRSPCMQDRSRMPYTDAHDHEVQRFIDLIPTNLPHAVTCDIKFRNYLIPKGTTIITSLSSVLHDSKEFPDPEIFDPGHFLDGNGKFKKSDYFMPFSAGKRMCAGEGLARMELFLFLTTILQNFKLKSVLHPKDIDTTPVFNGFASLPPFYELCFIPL
Experimental: as §1, §2

rat Cyp 3A2 = biological target: T4, rat Cyp 3A2 (Rattus norvegicus, UniProt P05183); assay: Recombinant rat Cyp phenotype profiling, 3A2; type: in vitro ADME; conditions: 60 min
T4 construct: purchased BD Gentest; host or cells: baculovirus infected insect cells
T4 sequence (P05183 whole entry): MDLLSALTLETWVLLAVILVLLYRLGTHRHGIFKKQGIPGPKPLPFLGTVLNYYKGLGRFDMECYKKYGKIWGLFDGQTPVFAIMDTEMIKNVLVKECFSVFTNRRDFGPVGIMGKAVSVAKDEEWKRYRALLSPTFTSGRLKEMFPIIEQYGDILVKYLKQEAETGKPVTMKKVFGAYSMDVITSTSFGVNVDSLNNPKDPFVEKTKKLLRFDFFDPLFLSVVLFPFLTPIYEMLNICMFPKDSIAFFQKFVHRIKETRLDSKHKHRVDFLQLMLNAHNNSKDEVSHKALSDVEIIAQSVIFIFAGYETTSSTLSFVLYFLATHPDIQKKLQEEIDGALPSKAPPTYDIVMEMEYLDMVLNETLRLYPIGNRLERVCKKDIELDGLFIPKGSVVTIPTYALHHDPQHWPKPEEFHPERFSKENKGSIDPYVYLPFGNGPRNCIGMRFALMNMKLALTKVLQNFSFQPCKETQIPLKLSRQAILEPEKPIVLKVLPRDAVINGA
Experimental: as §1, §2

T1 sequence (P00176 whole entry): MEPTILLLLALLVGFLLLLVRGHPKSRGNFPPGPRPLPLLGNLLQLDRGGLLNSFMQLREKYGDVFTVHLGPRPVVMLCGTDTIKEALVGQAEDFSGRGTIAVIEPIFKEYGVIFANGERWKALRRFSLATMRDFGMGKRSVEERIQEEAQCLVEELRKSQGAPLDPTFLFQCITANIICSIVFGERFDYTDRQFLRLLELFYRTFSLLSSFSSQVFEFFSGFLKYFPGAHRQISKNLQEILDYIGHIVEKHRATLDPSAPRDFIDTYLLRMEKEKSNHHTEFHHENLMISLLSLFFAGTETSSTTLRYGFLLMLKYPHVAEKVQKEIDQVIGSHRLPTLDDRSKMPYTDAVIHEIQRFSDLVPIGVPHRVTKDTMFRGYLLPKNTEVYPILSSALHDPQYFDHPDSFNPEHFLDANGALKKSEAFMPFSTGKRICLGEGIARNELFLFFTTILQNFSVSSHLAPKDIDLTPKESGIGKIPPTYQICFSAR

Compound: N#Cc1cccc(-c2noc(-c3cccnc3)n2)c1 [A-998679, 3-(5-pyridin-3-yl-1,2,4-oxadiazol-3-yl) benzonitrile]
- % parent remaining (rat Cyp2b1; recombinant rat Cyp 2B1, 0.10 μM): 87.0%
- % parent remaining (rat Cyp2b1; recombinant rat Cyp 2B1, 0.21 μM): 34.5%
- % parent remaining (rat Cyp 2D1; recombinant rat Cyp 2D1, 0.10 μM): 91.9%
- % parent remaining (rat Cyp 2D1; recombinant rat Cyp 2D1, 0.21 μM): 91.1%
- Cyp1a1 mRNA expression in rat jejunum (Cyp1a1; 200 mg/kg): significantly decreased
- Cyp1a1 mRNA expression in rat jejunum (Cyp1a1; 30 and 100 mg/kg, high interindividual variability): increased
- % parent remaining (rat Cyp 2C6; recombinant rat Cyp 2C6, 0.10 μM): 91.0%
- % parent remaining (rat Cyp 2C6; recombinant rat Cyp 2C6, 0.21 μM): 88.8%
- % parent remaining (rat Cyp 3A2; recombinant rat Cyp 3A2, 0.10 μM): 100%
- % parent remaining (rat Cyp 3A2; recombinant rat Cyp 3A2, 0.21 μM): 94.2%
